According to patent US9073855B2, “BCL-2 selective apoptosis-inducing agents for the treatment of cancer and immune diseases” (AbbVie Inc., priority 2008, dated 2015):

Tests used:
[1] = biological target: GST-Bcl-XL (Homo sapiens, UniProt Q07817); test: TR-FRET binding assay, GST-Bcl-XL with F-Bak peptide probe; settings: TR-FRET Binding Affinity, GST-Bcl-XL, F-Bak peptide probe
Method in brief: (§1)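 Ki was derived with Wang's equation for competitive binding of two ligands. The read-out was time-resolved fluorescence after a 3 h room-temperature incubation, using a Tb-labelled antibody donor and the F-Bak peptide acceptor (excitation 340/35 nm). Test compounds entered as DMSO serial dilutions starting at 50 μM, which was the 2× concentration.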

[2] = biological target: GST-Bcl-2 (Homo sapiens, UniProt P10415); test: TR-FRET binding assay, GST-Bcl-2 with F-Bak peptide probe; settings: TR-FRET Binding Affinity, GST-Bcl-2, F-Bak peptide probe
Method in brief: as §1

[3] = system: FL5.12/Bcl-2 cells; test: FL5.12/Bcl-2 cell viability assay under IL-3 withdrawal (CellTitre Glo); type: cell-based, murine; settings: Mus musculus, IL-3 withdrawn 48 hrs, then 24 hrs with compound
Method in brief: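 Viability measured with CellTiter-Glo after 24 h compound treatment at various concentrations, following 48 h IL-3 withdrawal (no WEHI-3B medium). Cells: prolymphocytic mouse FL5.12 line stably transfected to overexpress Bcl-2, cultured at 37 °C, 5% CO2.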

GST-Bcl-XL, sequence (Q07817 whole entry): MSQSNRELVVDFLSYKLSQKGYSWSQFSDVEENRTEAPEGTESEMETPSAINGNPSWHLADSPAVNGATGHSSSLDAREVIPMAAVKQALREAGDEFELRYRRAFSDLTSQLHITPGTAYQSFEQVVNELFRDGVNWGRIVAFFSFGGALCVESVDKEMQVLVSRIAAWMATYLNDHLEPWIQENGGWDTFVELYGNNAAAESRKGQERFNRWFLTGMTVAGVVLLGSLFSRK
GST-Bcl-2, sequence (P10415 whole entry): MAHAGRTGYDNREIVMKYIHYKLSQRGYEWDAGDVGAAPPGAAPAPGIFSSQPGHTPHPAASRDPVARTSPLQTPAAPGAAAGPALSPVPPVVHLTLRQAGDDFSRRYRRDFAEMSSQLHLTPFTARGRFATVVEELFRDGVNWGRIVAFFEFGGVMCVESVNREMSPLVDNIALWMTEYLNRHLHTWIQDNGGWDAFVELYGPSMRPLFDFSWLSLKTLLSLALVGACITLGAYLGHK

CC1(C)CCC(CN2CCN(c3ccc(C(=O)NS(=O)(=O)c4ccc(NCC5CCS(=O)(=O)C5)c([N+](=O)[O-])c4)c(Oc4ccc5[nH]ccc5c4)c3)CC2)=C(c2ccc(Cl)cc2)C1 (stereo not drawn) [Example 275, 4-(4-{[2-(4-chlorophenyl)-4,4-dimethylcyclohex-1-en-1-yl]methyl}piperazin-1-yl)-N-[(4-{[(1,1-dioxidotetrahydrothien-3-yl)methyl]amino}-3-nitrophenyl)sulfonyl]-2-(1H-indol-5-yloxy)benzamide]
Ki [1]: > 660 nM
Ki [2]: 0.097 nM
EC50 [3]: 38 nM

CC1(C)CCC(CN2CCN(c3ccc(C(=O)NS(=O)(=O)c4ccc(NC5CCS(=O)(=O)C5)c([N+](=O)[O-])c4)c(Oc4ccc5[nH]ccc5c4)c3)CC2)=C(c2ccc(Cl)cc2)C1 (stereo not drawn) [Example 276, 4-(4-{[2-(4-chlorophenyl)-4,4-dimethylcyclohex-1-en-1-yl]methyl}piperazin-1-yl)-N-({4-[(1,1-dioxidotetrahydrothien-3-yl)amino]-3-nitrophenyl}sulfonyl)-2-(1H-indol-5-yloxy)benzamide]
Ki [1]: 381 nM
Ki [2]: 0.144 nM
EC50 [3]: 62.2 nM

CC1(C)CCC(CN2CCN(c3ccc(C(=O)NS(=O)(=O)c4ccc(NCC5CCOCC5)c(C(F)(F)F)c4)c(Oc4ccc5[nH]ccc5c4)c3)CC2)=C(c2ccc(Cl)cc2)C1 [Example 277, 4-(4-{[2-(4-chlorophenyl)-4,4-dimethylcyclohex-1-en-1-yl]methyl}piperazin-1-yl)-2-(1H-indol-5-yloxy)-N-{[4-[(tetrahydro-2H-pyran-4-ylmethyl)amino]-3-(trifluoromethyl)phenyl]sulfonyl}benzamide]
Ki [1]: > 660 nM
Ki [2]: 29.7 nM
EC50 [3]: > 500 nM

CC1(C)CCC(CN2CCN(c3ccc(C(=O)NS(=O)(=O)c4ccc(CCC5OCCO5)c([N+](=O)[O-])c4)c(Oc4ccc5[nH]ccc5c4)c3)CC2)=C(c2ccc(Cl)cc2)C1 [Example 278, 4-(4-{[2-(4-chlorophenyl)-4,4-dimethylcyclohex-1-en-1-yl]methyl}piperazin-1-yl)-N-({4-[2-(1,3-dioxolan-2-yl)ethyl]-3-nitrophenyl}sulfonyl)-2-(1H-indol-5-yloxy)benzamide]
Ki [1]: > 660 nM
Ki [2]: 0.71 nM
EC50 [3]: 153 nM

CC1(C)CCC(CN2CCN(c3ccc(C(=O)NS(=O)(=O)c4ccc(OCC5CCOCC5)c([N+](=O)[O-])c4)c(Oc4ccc5[nH]ccc5c4)c3)CC2)=C(c2ccc(Cl)cc2)C1 [Example 279, 4-(4-{[2-(4-chlorophenyl)-4,4-dimethylcyclohex-1-en-1-yl]methyl}piperazin-1-yl)-2-(1H-indol-5-yloxy)-N-{[3-nitro-4-(tetrahydro-2H-pyran-4-ylmethoxy)phenyl]sulfonyl}benzamide]
Ki [1]: > 660 nM
Ki [2]: 0.095 nM
EC50 [3]: 16.2 nM

CC1(C)CCC(CN2CCN(c3ccc(C(=O)NS(=O)(=O)c4ccc(NCCN5CCNC(=O)C5)c([N+](=O)[O-])c4)c(Oc4cccc5[nH]ccc45)c3)CC2)=C(c2ccc(Cl)cc2)C1 [Example 280, 4-(4-{[2-(4-chlorophenyl)-4,4-dimethylcyclohex-1-en-1-yl]methyl}piperazin-1-yl)-2-(1H-indol-4-yloxy)-N-[(3-nitro-4-{[2-(3-oxopiperazin-1-yl)ethyl]amino}phenyl)sulfonyl]benzamide]
Ki [1]: 195 nM
Ki [2]: 0.178 nM
EC50 [3]: 247 nM

CN1CC(Nc2ccc(S(=O)(=O)NC(=O)c3ccc(N4CCN(CC5=C(c6ccc(Cl)cc6)CC(C)(C)CC5)CC4)cc3Oc3ccc4[nH]ccc4c3)cc2[N+](=O)[O-])CC1=O (stereo not drawn) [Example 281, 4-(4-{[2-(4-chlorophenyl)-4,4-dimethylcyclohex-1-en-1-yl]methyl}piperazin-1-yl)-2-(1H-indol-5-yloxy)-N-({4-[(1-methyl-5-oxopyrrolidin-3-yl)amino]-3-nitrophenyl}sulfonyl)benzamide]
Ki [1]: 119 nM
Ki [2]: 0.076 nM
EC50 [3]: 60.2 nM
